Source: PubChem BioAssay AID248 (DTP/NCI, 2004)
Several values for one entry are separate records, joined by “and”; a condition that tells them apart may be missing. Equal entries are not always repeated. Toxic doses and inconclusive results are not listed. No stated cut-off is given here; in the data, active means T/C of 150% or more; inactive means T/C below 125%. Peptide text beside a SMILES is read from it. * marks the point of attachment. Cbz = O=C(OCc1ccccc1)*; Bn = c1ccc(C*)cc1

System: L1210 leukemia ip in BDF1 mice, survival T/C
Experiment: NCI In Vivo Anticancer Drug Screen. Data for tumor model L1210 Leukemia (intraperitoneal) in B6D2F1 (BDF1) mice
Settings: endpoint: mean survival time, higher = longer survival
How it was run: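 In this screen, tumor-bearing mice given compound are compared to those given vehicle, and their survival values are reported as a treated-to-control quotient.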

[1] = dose: 100.0 mg/kg/injection, schedule: Q04DX002 (ip), vehicle: Klucel (hydroxypropylcellulose) (HPC)
[2] = dose: 25.0 mg/kg/injection, schedule: Q01DX009 (ip), vehicle: saline
[3] = dose: 25.0 mg/kg/injection, schedule: Q04DX003 (ip), vehicle: saline
[4] = dose: 50.0 mg/kg/injection, schedule: Q01DX009 (ip), vehicle: saline
[5] = dose: 50.0 mg/kg/injection, schedule: Q04DX003 (ip), vehicle: saline
[6] = dose: 100.0 mg/kg/injection, schedule: Q04DX003 (ip), vehicle: saline with Tween-80
[7] = dose: 200.0 mg/kg/injection, schedule: Q04DX003 (ip), vehicle: saline with Tween-80
[8] = dose: 100.0 mg/kg/injection, schedule: Q04DX003 (ip), vehicle: saline
[9] = dose: 200.0 mg/kg/injection, schedule: Q04DX003 (ip), vehicle: saline
[10] = dose: 100.0 mg/kg/injection, schedule: Q01DX001 (ip), vehicle: saline
[11] = dose: 200.0 mg/kg/injection, schedule: Q01DX001 (ip), vehicle: saline
[12] = dose: 100.0 mg/kg/injection, schedule: Q04DX003 (ip), vehicle: Klucel (hydroxypropylcellulose) (HPC)
[13] = dose: 200.0 mg/kg/injection, schedule: Q04DX003 (ip), vehicle: Klucel (hydroxypropylcellulose) (HPC)
[14] = dose: 400.0 mg/kg/injection, schedule: Q04DX003 (ip), vehicle: Klucel (hydroxypropylcellulose) (HPC)

Measured: T/C

NC(CCC(=O)O)C(=O)NC(CC(=O)O)C(=O)O (stereo not drawn) (H-Glu-Asp-OH; configuration not given here)
inactive: dose: 12.5 mg/kg/injection, schedule: Q04DX002 (ip), vehicle: Klucel (hydroxypropylcellulose) (HPC) 90 % of control | dose: 25.0 mg/kg/injection, schedule: Q04DX002 (ip), vehicle: Klucel (hydroxypropylcellulose) (HPC) 105 % of control | dose: 50.0 mg/kg/injection, schedule: Q04DX002 (ip), vehicle: Klucel (hydroxypropylcellulose) (HPC) 98 % of control | [1] 94 % of control

CN1C(=O)N(C)C2(CCCC2)C1=O
inactive: dose: 100.0 mg/kg/injection, schedule: Q01DX001 (ip), vehicle: carboxymethylcellulose (CMC) 107 % of control | dose: 200.0 mg/kg/injection, schedule: Q01DX001 (ip), vehicle: carboxymethylcellulose (CMC) 104 % of control | dose: 400.0 mg/kg/injection, schedule: Q01DX001 (ip), vehicle: carboxymethylcellulose (CMC) 104 % of control

NC(N)=N/N=C\c1ccc(C2CCNCC2)cc1
inactive: dose: 15.0 mg/kg/injection, schedule: Q01DX Z (ip), vehicle: methylcellulose (MC) 107 % of control | dose: 15.0 mg/kg/injection, schedule: Q01DX Z (oral), vehicle: methylcellulose (MC) 110 % of control | dose: 30.0 mg/kg/injection, schedule: Q01DX Z (ip), vehicle: methylcellulose (MC) 108 % of control | dose: 30.0 mg/kg/injection, schedule: Q01DX Z (oral), vehicle: methylcellulose (MC) 100 % of control | dose: 60.0 mg/kg/injection, schedule: Q01DX Z (oral), vehicle: methylcellulose (MC) 104 % of control

CCS/C(N)=N\N
inactive: dose: 12.5 mg/kg/injection, schedule: Q01DX009 (ip), vehicle: saline 95 % of control | [2] 98 % of control | [3] 113 % of control | [4] 104 % of control | [5] 98 % of control

COc1ccc(C(=O)Nc2ccc(C)c(Cl)c2)cc1
inactive: [1] 115 % of control | dose: 200.0 mg/kg/injection, schedule: Q04DX002 (ip), vehicle: Klucel (hydroxypropylcellulose) (HPC) 115 % of control | dose: 400.0 mg/kg/injection, schedule: Q04DX002 (ip), vehicle: Klucel (hydroxypropylcellulose) (HPC) 112 % of control

O=C(O)c1cc2ccccc2cc1Sc1ccccc1
inactive: [6] 103 % of control | [7] 102 % of control

CN1C(=O)OC(C)(C)C1=O
inactive: [2] 98 % of control | [3] 93 % of control | [4] 95 % of control | [5] 109 % of control | dose: 100.0 mg/kg/injection, schedule: Q01DX009 (ip), vehicle: saline 102 % of control | [8] 98 % of control | dose: 200.0 mg/kg/injection, schedule: Q01DX009 (ip), vehicle: saline 96 % of control | [9] 109 % of control | dose: 400.0 mg/kg/injection, schedule: Q01DX009 (ip), vehicle: saline 106 % of control | dose: 400.0 mg/kg/injection, schedule: Q04DX003 (ip), vehicle: saline 98 % of control

CC(C)CC(N)C(=O)NCCCCCCNCCCCCCNC(=O)C(N)CC(C)C (configuration not stated)
inactive: dose: 50.0 mg/kg/injection, schedule: Q01DX001 (ip), vehicle: saline 103 % of control | [10] 105 % of control | [11] 102 % of control

CCOC(=O)N(Cl)Cl
inactive: dose: 3.13 mg/kg/injection, schedule: Q04DX003 (ip), vehicle: saline 105 % of control | dose: 6.25 mg/kg/injection, schedule: Q04DX003 (ip), vehicle: saline 98 % of control | dose: 12.5 mg/kg/injection, schedule: Q04DX003 (ip), vehicle: saline 98 % of control

CCOC(=O)/C=C\C(=O)O.[Mn]
inactive: dose: 25.0 mg/kg/injection, schedule: Q01DX009 (ip), vehicle: saline with Tween-80 97 % of control | [3] 108 % of control | dose: 50.0 mg/kg/injection, schedule: Q01DX009 (ip), vehicle: saline with Tween-80 108 % of control | [5] 106 % of control | dose: 100.0 mg/kg/injection, schedule: Q01DX009 (ip), vehicle: saline with Tween-80 110 % of control | [8] 103 % of control and 108 % of control | [9] 120 % of control

[Se]c1ccnc([Se])n1
inactive: [6] 89 % of control | [7] 94 % of control

CCOC(=O)CCCCCCCCCCOc1ccc(C(C)=O)cc1
inactive: [12] 94 % of control | [13] 100 % of control | [14] 97 % of control

CC(=O)Oc1cc2c(cc1[N+](=O)[O-])OCO2
inactive: dose: 100.0 mg/kg/injection, schedule: Q01DX001 (ip), vehicle: Klucel (hydroxypropylcellulose) (HPC) 104 % of control | [12] 94 % of control | dose: 200.0 mg/kg/injection, schedule: Q01DX001 (ip), vehicle: Klucel (hydroxypropylcellulose) (HPC) 94 % of control | [13] 93 % of control | dose: 400.0 mg/kg/injection, schedule: Q01DX001 (ip), vehicle: Klucel (hydroxypropylcellulose) (HPC) 98 % of control | [14] 105 % of control

CCCCOB(CI)OCCCC
inactive: dose: 6.25 mg/kg/injection, schedule: Q01DX009 (ip), vehicle: saline sonified 96 % of control | dose: 6.25 mg/kg/injection, schedule: Q04DX003 (ip), vehicle: saline sonified 94 % of control | dose: 12.5 mg/kg/injection, schedule: Q01DX009 (ip), vehicle: saline sonified 100 % of control | dose: 12.5 mg/kg/injection, schedule: Q04DX003 (ip), vehicle: saline sonified 92 % of control | dose: 25.0 mg/kg/injection, schedule: Q01DX009 (ip), vehicle: saline sonified 104 % of control | dose: 25.0 mg/kg/injection, schedule: Q04DX003 (ip), vehicle: saline sonified 105 % of control

OCc1c2ccccc2cc2ccccc12
inactive: dose: 100.0 mg/kg/injection, schedule: Q01DX001 (ip), vehicle: saline with Tween-80 93 % of control | dose: 200.0 mg/kg/injection, schedule: Q01DX001 (ip), vehicle: saline with Tween-80 87 % of control | dose: 400.0 mg/kg/injection, schedule: Q01DX001 (ip), vehicle: saline with Tween-80 93 % of control

CC1(C)N=C(N)N=C(N)N1c1ccc(CCc2ccccc2)cc1
inactive: dose: 12.5 mg/kg/injection, schedule: Q01DX009 (ip), vehicle: Klucel (hydroxypropylcellulose) (HPC) 97 % of control | dose: 12.5 mg/kg/injection, schedule: Q04DX003 (ip), vehicle: Klucel (hydroxypropylcellulose) (HPC) 98 % of control | dose: 12.5 mg/kg/injection, schedule: Q04DX003 (ip), vehicle: saline with Tween-80 101 % of control | dose: 25.0 mg/kg/injection, schedule: Q01DX009 (ip), vehicle: Klucel (hydroxypropylcellulose) (HPC) 93 % of control | dose: 25.0 mg/kg/injection, schedule: Q04DX003 (ip), vehicle: Klucel (hydroxypropylcellulose) (HPC) 104 % of control | dose: 25.0 mg/kg/injection, schedule: Q04DX003 (ip), vehicle: saline with Tween-80 102 % of control | dose: 50.0 mg/kg/injection, schedule: Q04DX003 (ip), vehicle: Klucel (hydroxypropylcellulose) (HPC) 93 % of control | dose: 50.0 mg/kg/injection, schedule: Q04DX003 (ip), vehicle: saline with Tween-80 104 % of control

CC(C)C(NC(=O)C(CSCc1ccccc1)NC(=O)OCc1ccccc1)C(N)=O (configuration not stated) (Cbz-Cys(Bn)-Val-NH2; configuration not given here)
inactive: dose: 100.0 mg/kg/injection, schedule: Q01DX009 (ip), vehicle: Klucel (hydroxypropylcellulose) (HPC) 87 % of control | dose: 200.0 mg/kg/injection, schedule: Q01DX009 (ip), vehicle: Klucel (hydroxypropylcellulose) (HPC) 89 % of control

O=S1(=O)C=C(Cl)C(Cl)C1 (configuration not stated)
inactive: [2] 93 % of control | [4] 86 % of control | [5] 95 % of control | [10] 93 % of control | [8] 92 % of control | [11] 102 % of control

O=C(Nc1ccccc1)N1CCN=C1C1CCCc2ccccc21 (configuration not stated)
inactive: dose: 100.0 mg/kg/injection, schedule: Q04DX002 (ip), vehicle: saline with Tween-80 89 % of control | dose: 200.0 mg/kg/injection, schedule: Q04DX002 (ip), vehicle: saline with Tween-80 89 % of control | dose: 400.0 mg/kg/injection, schedule: Q04DX002 (ip), vehicle: saline with Tween-80 86 % of control

Nc1ncnc2nc(N=Nc3ccc(C(=O)O)c(O)c3)[nH]c12
inactive: [12] 96 % of control | [13] 105 % of control | [14] 102 % of control
